ChEMBL document CHEMBL5608189, “Design and synthesis of unique indole-benzosulfonamide oleanolic acid derivatives as potent antibacterial agents against MRSA” (Eur J Med Chem, 2024)
Converted amounts (≈) assume the structure as drawn.

Key:
Format in all cases: functional
[1] = tested on: Staphylococcus aureus; test: Antibacterial activity against methicillin-resistant Staphylococcus aureus measured after 24 hrs by susceptibility assay
[2] = tested on: Staphylococcus aureus; test: Antibacterial activity against Staphylococcus aureus ATCC 6538 measured after 24 hrs by susceptibility assay
[3] = tested on: Staphylococcus epidermidis; test: Antibacterial activity against Staphylococcus epidermidis ATCC 12228 measured after 24 hrs by susceptibility assay
[4] = tested on: Staphylococcus aureus; test: Antibacterial activity against Staphylococcus aureus ATCC 29213 measured after 24 hrs by susceptibility assay

Row | Compound | MIC [1] [µM] | MIC [2] [µM] | MIC [3] [µM] | MIC [4] [µM]
1 | Cc1ccc(S(=O)(=O)NC(=O)[C@]23CCC(C)(C)C[C@H]2C2=CC[C@@H]4[C@@]5(C)Cc6c([nH]c7cc(C(=O)O)ccc67)C(C)(C)[C@@H]5CC[C@@]4(C)[C@]2(C)CC3)cc1 | 2 (≈ 1.45 µg/mL) | 1 (≈ 0.725 µg/mL) | 1 (≈ 0.725 µg/mL) | 2 (≈ 1.45 µg/mL)
2 | CC1(C)CC[C@]2(C(=O)NS(=O)(=O)c3ccccc3)CC[C@]3(C)C(=CC[C@@H]4[C@@]5(C)Cc6c([nH]c7ccc(Cl)cc67)C(C)(C)[C@@H]5CC[C@]43C)[C@@H]2C1 | > 256 | > 256 | > 256 | > 256
3 | CC1(C)CC[C@]2(C(=O)NS(=O)(=O)c3ccccc3)CC[C@]3(C)C(=CC[C@@H]4[C@@]5(C)Cc6c([nH]c7ccc(C(=O)O)cc67)C(C)(C)[C@@H]5CC[C@]43C)[C@@H]2C1 | 1 (≈ 0.711 µg/mL) | 1 (≈ 0.711 µg/mL) | 2 (≈ 1.42 µg/mL) | 2 (≈ 1.42 µg/mL)
4 | CC1(C)CC[C@]2(C(=O)NS(=O)(=O)c3ccc(Cl)cc3)CC[C@]3(C)C(=CC[C@@H]4[C@@]5(C)Cc6c([nH]c7cc(C(=O)O)ccc67)C(C)(C)[C@@H]5CC[C@]43C)[C@@H]2C1 | 2 (≈ 1.49 µg/mL) | 0.5 (≈ 0.373 µg/mL) | 1 (≈ 0.745 µg/mL) | 2 (≈ 1.49 µg/mL)
5 | CC1(C)CC[C@]2(C(=O)NS(=O)(=O)c3ccc(Cl)cc3)CC[C@]3(C)C(=CC[C@@H]4[C@@]5(C)Cc6c([nH]c7ccc(C(=O)O)cc67)C(C)(C)[C@@H]5CC[C@]43C)[C@@H]2C1 | 1 (≈ 0.745 µg/mL) | 0.5 (≈ 0.373 µg/mL) | 1 (≈ 0.745 µg/mL) | 1 (≈ 0.745 µg/mL)
6 | CC(=O)c1cccc2[nH]c3c(c12)C[C@]1(C)[C@H]2CC=C4[C@@H]5CC(C)(C)CC[C@]5(C(=O)NS(=O)(=O)c5ccccc5)CC[C@@]4(C)[C@]2(C)CC[C@H]1C3(C)C | 4 (≈ 2.84 µg/mL) | 4 (≈ 2.84 µg/mL) | 2 (≈ 1.42 µg/mL) | 4 (≈ 2.84 µg/mL)
7 | CC1(C)CC[C@]2(C(=O)NS(=O)(=O)c3ccc(Cl)cc3)CC[C@]3(C)C(=CC[C@@H]4[C@@]5(C)CCC(=O)C(C)(C)[C@@H]5CC[C@]43C)[C@@H]2C1 | 32 (≈ 20.1 µg/mL) | 4 (≈ 2.51 µg/mL) | 4 (≈ 2.51 µg/mL) | 8 (≈ 5.03 µg/mL)
8 | CC1(C)CC[C@]2(C(=O)Nc3ccc(-c4ccccc4)cc3)CC[C@]3(C)C(=CC[C@@H]4[C@@]5(C)Cc6c([nH]c7ccc(C(=O)O)cc67)C(C)(C)[C@@H]5CC[C@]43C)[C@@H]2C1 | > 256 | > 256 | > 256 | > 256
9 | CC1(C)CC[C@]2(C(=O)NS(=O)(=O)c3ccc(C(=O)O)cc3)CC[C@]3(C)C(=CC[C@@H]4[C@@]5(C)Cc6c([nH]c7c(C(=O)O)cccc67)C(C)(C)[C@@H]5CC[C@]43C)[C@@H]2C1 | 1 (≈ 0.755 µg/mL) | 0.5 (≈ 0.377 µg/mL) | 1 (≈ 0.755 µg/mL) | 2 (≈ 1.51 µg/mL)
10 | COc1ccc(S(=O)(=O)NC(=O)[C@]23CCC(C)(C)C[C@H]2C2=CC[C@@H]4[C@@]5(C)Cc6c([nH]c7ccc(C(=O)O)cc67)C(C)(C)[C@@H]5CC[C@@]4(C)[C@]2(C)CC3)cc1 | 2 (≈ 1.48 µg/mL) | 0.5 (≈ 0.371 µg/mL) | 2 (≈ 1.48 µg/mL) | 2 (≈ 1.48 µg/mL)
11 | CN1CCN(C(=O)[C@]23CCC(C)(C)C[C@H]2C2=CC[C@@H]4[C@@]5(C)Cc6c([nH]c7ccc(C(=O)O)cc67)C(C)(C)[C@@H]5CC[C@@]4(C)[C@]2(C)CC3)CC1 | > 256 | > 256 | > 256 | > 256
12 | CC1(C)CC[C@]2(C(=O)NS(=O)(=O)c3ccccc3)CC[C@]3(C)C(=CC[C@@H]4[C@@]5(C)CCC(=O)C(C)(C)[C@@H]5CC[C@]43C)[C@@H]2C1 | > 256 | 128 (≈ 76 µg/mL) | > 256 | > 256
13 | Cc1ccc(S(=O)(=O)NC(=O)[C@]23CCC(C)(C)C[C@H]2C2=CC[C@@H]4[C@@]5(C)Cc6c([nH]c7ccc(C(=O)O)cc67)C(C)(C)[C@@H]5CC[C@@]4(C)[C@]2(C)CC3)cc1 | 2 (≈ 1.45 µg/mL) | 1 (≈ 0.725 µg/mL) | 1 (≈ 0.725 µg/mL) | 1 (≈ 0.725 µg/mL)
14 | CC1(C)CC[C@]2(C(=O)NS(=O)(=O)c3ccc(Cl)cc3)CC[C@]3(C)C(=CC[C@@H]4[C@@]5(C)Cc6c([nH]c7cccc(C(=O)O)c67)C(C)(C)[C@@H]5CC[C@]43C)[C@@H]2C1 | 2 (≈ 1.49 µg/mL) | 1 (≈ 0.745 µg/mL) | 2 (≈ 1.49 µg/mL) | 2 (≈ 1.49 µg/mL)
15 | CC1(C)CC[C@]2(C(=O)NS(=O)(=O)c3ccc(C(=O)O)cc3)CC[C@]3(C)C(=CC[C@@H]4[C@@]5(C)Cc6c([nH]c7ccc(C(=O)O)cc67)C(C)(C)[C@@H]5CC[C@]43C)[C@@H]2C1 | 64 (≈ 48.3 µg/mL) | 64 (≈ 48.3 µg/mL) | 64 (≈ 48.3 µg/mL) | 64 (≈ 48.3 µg/mL)
16 | COc1ccc(S(=O)(=O)NC(=O)[C@]23CCC(C)(C)C[C@H]2C2=CC[C@@H]4[C@@]5(C)Cc6c([nH]c7cccc(C(=O)O)c67)C(C)(C)[C@@H]5CC[C@@]4(C)[C@]2(C)CC3)cc1 | 4 (≈ 2.96 µg/mL) | 2 (≈ 1.48 µg/mL) | 4 (≈ 2.96 µg/mL) | 8 (≈ 5.93 µg/mL)
17 | CC1(C)CC[C@]2(C(=O)Nc3ccc(-c4ccccc4)cc3)CC[C@]3(C)C(=CC[C@@H]4[C@@]5(C)Cc6c([nH]c7c(C(=O)O)cccc67)C(C)(C)[C@@H]5CC[C@]43C)[C@@H]2C1 | > 256 | > 256 | > 256 | > 256

Row | Compound | MIC [1] [µM] | MIC [2] [µM] | MIC [3] [µM] | MIC [4] [µM]
18 | CN[C@H](CC(C)C)C(=O)N[C@H]1C(=O)N[C@@H](CC(N)=O)C(=O)N[C@H]2C(=O)N[C@H]3C(=O)N[C@H](C(=O)N[C@H](C(=O)O)c4cc(O)cc(O)c4-c4cc3ccc4O)[C@H](O)c3ccc(c(Cl)c3)Oc3cc2cc(c3O[C@@H]2O[C@H](CO)[C@@H](O)[C@H](O)[C@H]2O[C@H]2C[C@](C)(N)[C@H](O)[C@H](C)O2)Oc2ccc(cc2Cl)[C@H]1O [VANCOMYCIN] | 0.5 (≈ 0.725 µg/mL) | 0.5 (≈ 0.725 µg/mL) | 0.5 (≈ 0.725 µg/mL) | 0.5 (≈ 0.725 µg/mL)
19 | CC(=O)c1ccc2c3c([nH]c2c1)C(C)(C)[C@@H]1CC[C@]2(C)[C@H](CC=C4[C@@H]5CC(C)(C)CC[C@]5(C(=O)NS(=O)(=O)c5ccccc5)CC[C@]42C)[C@@]1(C)C3 | 2 (≈ 1.42 µg/mL) | 1 (≈ 0.709 µg/mL) | 2 (≈ 1.42 µg/mL) | 2 (≈ 1.42 µg/mL)
20 | CN1CCN(C(=O)[C@]23CCC(C)(C)C[C@H]2C2=CC[C@@H]4[C@@]5(C)Cc6c([nH]c7c(C(=O)O)cccc67)C(C)(C)[C@@H]5CC[C@@]4(C)[C@]2(C)CC3)CC1 | > 256 | > 256 | 128 (≈ 83.7 µg/mL) | > 256
21 | CC1(C)CC[C@]2(C(=O)Nc3ccc(-c4ccccc4)cc3)CC[C@]3(C)C(=CC[C@@H]4[C@@]5(C)CCC(=O)C(C)(C)[C@@H]5CC[C@]43C)[C@@H]2C1 | > 256 | > 256 | > 256 | > 256
22 | Cc1ccc(S(=O)(=O)NC(=O)[C@]23CCC(C)(C)C[C@H]2C2=CC[C@@H]4[C@@]5(C)CCC(=O)C(C)(C)[C@@H]5CC[C@@]4(C)[C@]2(C)CC3)cc1 | > 256 | > 256 | > 256 | > 256
23 | CC1(C)CC[C@]2(C(=O)O)CC[C@]3(C)C(=CC[C@@H]4[C@@]5(C)CC[C@H](O)C(C)(C)[C@@H]5CC[C@]43C)[C@@H]2C1 [OLEANOLIC_ACID] | 32 (≈ 14.6 µg/mL) | 32 (≈ 14.6 µg/mL) | 32 (≈ 14.6 µg/mL) | 32 (≈ 14.6 µg/mL)
24 | CC1(C)CC[C@]2(C(=O)Nc3ccc(-c4ccccc4)cc3)CC[C@]3(C)C(=CC[C@@H]4[C@@]5(C)Cc6c([nH]c7cccc(C(=O)O)c67)C(C)(C)[C@@H]5CC[C@]43C)[C@@H]2C1 | 256 (≈ 185 µg/mL) | 32 (≈ 23.1 µg/mL) | 64 (≈ 46.3 µg/mL) | 128 (≈ 92.5 µg/mL)
25 | COc1ccc(S(=O)(=O)NC(=O)[C@]23CCC(C)(C)C[C@H]2C2=CC[C@@H]4[C@@]5(C)Cc6c([nH]c7cc(C(=O)O)ccc67)C(C)(C)[C@@H]5CC[C@@]4(C)[C@]2(C)CC3)cc1 | 4 (≈ 2.96 µg/mL) | 1 (≈ 0.741 µg/mL) | 2 (≈ 1.48 µg/mL) | 4 (≈ 2.96 µg/mL)
26 | CC1(C)CC[C@]2(C(=O)NS(=O)(=O)c3ccccc3)CC[C@]3(C)C(=CC[C@@H]4[C@@]5(C)Cc6c([nH]c7ccc(Br)cc67)C(C)(C)[C@@H]5CC[C@]43C)[C@@H]2C1 | > 256 | > 256 | > 256 | > 256
27 | Cc1ccc(S(=O)(=O)NC(=O)[C@]23CCC(C)(C)C[C@H]2C2=CC[C@@H]4[C@@]5(C)Cc6c([nH]c7cccc(C(=O)O)c67)C(C)(C)[C@@H]5CC[C@@]4(C)[C@]2(C)CC3)cc1 | 4 (≈ 2.9 µg/mL) | 1 (≈ 0.725 µg/mL) | 4 (≈ 2.9 µg/mL) | 4 (≈ 2.9 µg/mL)
28 | CN1CCN(C(=O)[C@]23CCC(C)(C)C[C@H]2C2=CC[C@@H]4[C@@]5(C)CCC(=O)C(C)(C)[C@@H]5CC[C@@]4(C)[C@]2(C)CC3)CC1 | > 256 | 64 (≈ 34.4 µg/mL) | 64 (≈ 34.4 µg/mL) | 32 (≈ 17.2 µg/mL)
29 | CC1(C)CC[C@]2(C(=O)NS(=O)(=O)c3ccccc3)CC[C@]3(C)C(=CC[C@@H]4[C@@]5(C)Cc6c([nH]c7ccccc67)C(C)(C)[C@@H]5CC[C@]43C)[C@@H]2C1 | > 256 | > 256 | > 256 | > 256
30 | CC1(C)CC[C@]2(C(=O)NS(=O)(=O)c3ccc(C(=O)O)cc3)CC[C@]3(C)C(=CC[C@@H]4[C@@]5(C)Cc6c([nH]c7cc(C(=O)O)ccc67)C(C)(C)[C@@H]5CC[C@]43C)[C@@H]2C1 | 2 (≈ 1.51 µg/mL) | 1 (≈ 0.755 µg/mL) | 4 (≈ 3.02 µg/mL) | 2 (≈ 1.51 µg/mL)
31 | CC1(C)CC[C@]2(C(=O)Nc3ccc(-c4ccccc4)cc3)CC[C@]3(C)C(=CC[C@@H]4[C@@]5(C)Cc6c([nH]c7cc(C(=O)O)ccc67)C(C)(C)[C@@H]5CC[C@]43C)[C@@H]2C1 | > 256 | > 256 | > 256 | > 256
32 | CN1CCN(C(=O)[C@]23CCC(C)(C)C[C@H]2C2=CC[C@@H]4[C@@]5(C)Cc6c([nH]c7cc(C(=O)O)ccc67)C(C)(C)[C@@H]5CC[C@@]4(C)[C@]2(C)CC3)CC1 | 256 (≈ 167 µg/mL) | > 256 | 64 (≈ 41.9 µg/mL) | > 256
33 | CC1(C)CC[C@]2(C(=O)NS(=O)(=O)c3ccc(C(=O)O)cc3)CC[C@]3(C)C(=CC[C@@H]4[C@@]5(C)CCC(=O)C(C)(C)[C@@H]5CC[C@]43C)[C@@H]2C1 | 256 (≈ 163 µg/mL) | 64 (≈ 40.8 µg/mL) | 256 (≈ 163 µg/mL) | 128 (≈ 81.6 µg/mL)
